Laboratory results published in patent US20050009007A1 (priority 2003, published 2005).

Test system: giant synaptic terminal of depolarizing bipolar cells from the goldfish retina
Type: cell-based
Details: n=7

O=C(O)CN(CC(=O)O)c1ccccc1OCCOc1ccccc1N(CC(=O)O)CC(=O)O [BAPTA]
increase in area of the footprint triggered by depolarization: completely blocked
